What was measured:
IGF1R = molecular target: T1, IGF1R (Homo sapiens, UniProt P08069); assay: Inhibition of IGF1-induced signaling in intact MCF7 cells (western blot); assay type: cell-based; settings: for Inhibition of IGF1R autophosphorylation and IGF1-induced signaling (IRS1 pTyr, Akt/PKB, MAPK/ERK): 4 h exposure, IGF1 stimulation
T1 construct: made in house
Protocol: (§1) Tyrosine autophosphorylation of the β-subunit of IGF1R as well as downstream signaling induced by IGF1R were assayed in breast cancer MCF7 cells. Tyrosine autophosphorylation of the EGFR and the EGFR signaling was assayed in prostate cancer PC3 cells. Tyrosine autophosphorylation of the PDGFR and its signaling was assayed in fibroblasts overexpres sing PDGFR. Tyro sine autophosphorylation of the IR and its signaling was assayed in fibroblasts overexpressing IR. Cells were seeded in 6-well plates (MCF7-250,000 cells/well, PC3-150,000 cells/well, fibroblasts-140,000 cells/well) and 24 hours later medium was replaced by serum-free medium (DMEM supplemented with 100 units/ml penicillin and 100 μg/ml streptomycin). Following 20 hours of serum-starvation medium was replaced with medium containing various concentrations of the inhibitors in 0.1% DMSO for additional 4 hours. Cells were then stimulated for 5 min with 50 ng/ml IGF-1 (MCF7 cells), 20 ng/ml EGF (PC3 cells), 50 ng/ml PDGF (fibroblasts overexpressing PDGFR) or 100 nM insulin (fibroblasts overexpressing IR), washed twice with PBS and lysed by boiling sample buffer (10% glycerol, 50 mM Tris-HCl, pH 6.8, 3% SDS, and 5%, β-mercaptoethanol). Equal amounts of protein per lane were separated by 8% SDS-PAGE and transferred to a nitrocellulose membrane (Sartorius AG). Phosphorylated proteins were immunoblotted with anti-phospho-IGF1R (phosphor-IGF1R), anti-phosphotyrosine-IRS1 (phospho-IRS1), anti-phospho(T308)Akt (phospho-PKB), anti-phospho-Erk (phospho-ERK), anti-phosphotyrosine 4G10&PY20 (pY-EGFR or pY-PDGFR), anti-phospho-Ser^636/639-IRS1 (pS^636/639-IRS1) and anti-phospho-STAT3 (phospho-STAT3) antibodies. Detection was performed with horseradish peroxidase-conjugated secondary antibody using the ECL system. Blots were then stripped of antibodies, blocked with TBST with 5% low fat milk and re-probed with antibodies detecting both the phosphorylated and the non-phosphorylated corresponding proteins e.g. IGF1Rβ, IRS1, PKB, ERK, IRβ, PDGFR and Stat3.

EGFR = molecular target: T2, EGFR (Homo sapiens, UniProt P00533); assay: EGFR activation and EGF-induced signaling in PC3 cells; assay type: cell-based; settings: EGF stimulation
T2 construct: endogenous in cells; host or cells: PC3
T2 sequence (P00533 25-1210): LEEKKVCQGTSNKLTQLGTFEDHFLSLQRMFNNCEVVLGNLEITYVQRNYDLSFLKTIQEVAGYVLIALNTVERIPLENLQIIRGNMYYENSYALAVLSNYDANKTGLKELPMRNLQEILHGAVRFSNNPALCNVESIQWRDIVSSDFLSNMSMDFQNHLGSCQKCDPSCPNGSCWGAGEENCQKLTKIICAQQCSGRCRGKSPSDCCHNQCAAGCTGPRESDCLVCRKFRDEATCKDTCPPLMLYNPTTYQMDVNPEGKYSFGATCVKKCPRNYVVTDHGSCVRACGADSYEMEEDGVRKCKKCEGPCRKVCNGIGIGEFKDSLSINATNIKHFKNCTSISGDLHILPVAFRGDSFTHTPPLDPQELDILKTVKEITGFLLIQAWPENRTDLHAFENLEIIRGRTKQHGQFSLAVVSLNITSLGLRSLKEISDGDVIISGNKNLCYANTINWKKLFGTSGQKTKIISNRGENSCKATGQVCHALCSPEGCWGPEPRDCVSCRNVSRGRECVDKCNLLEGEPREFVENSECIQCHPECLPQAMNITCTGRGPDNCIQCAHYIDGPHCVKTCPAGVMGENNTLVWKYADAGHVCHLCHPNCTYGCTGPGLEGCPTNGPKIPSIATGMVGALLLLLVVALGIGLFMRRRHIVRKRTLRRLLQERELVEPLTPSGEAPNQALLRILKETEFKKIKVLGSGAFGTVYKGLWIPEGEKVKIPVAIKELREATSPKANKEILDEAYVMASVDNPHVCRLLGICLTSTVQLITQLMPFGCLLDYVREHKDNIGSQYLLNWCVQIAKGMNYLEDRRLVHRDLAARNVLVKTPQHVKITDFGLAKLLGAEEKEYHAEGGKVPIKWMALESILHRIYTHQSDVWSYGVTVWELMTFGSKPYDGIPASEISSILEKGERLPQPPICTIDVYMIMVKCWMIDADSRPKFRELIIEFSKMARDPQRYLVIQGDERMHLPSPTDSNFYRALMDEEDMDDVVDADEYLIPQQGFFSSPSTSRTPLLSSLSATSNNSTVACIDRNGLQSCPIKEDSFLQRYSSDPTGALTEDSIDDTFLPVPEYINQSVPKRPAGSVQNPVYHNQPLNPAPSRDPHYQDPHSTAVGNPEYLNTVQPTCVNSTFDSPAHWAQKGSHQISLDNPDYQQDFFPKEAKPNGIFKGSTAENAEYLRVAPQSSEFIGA
Protocol: as §1, with “Phosphorylated proteins were immunoblotted with anti-phospho-IGF1R (phosphor-IGF1R), anti-phosphotyrosine-IRS1 (phospho-IRS1), anti-phospho(T308)Akt (phospho-PKB), anti-phospho-Erk (phospho-ERK), anti-phosphotyrosine 4G10&PY20 (pY-EGFR or pY-PDGFR), anti-phospho-Ser^636/639-IRS1 (pS^636/639-IRS1) and anti-phospho-STAT3 (phospho-STAT3) antibodies. Detection was performed with horseradish peroxidase-conjugated secondary antibody using the ECL system. Blots were then stripped of antibodies, blocked with TBST with 5% low fat milk and re-probed with antibodies detecting both the phosphorylated and the non-phosphorylated corresponding proteins e.g. IGF1Rβ, IRS1, PKB, ERK, IRβ, PDGFR and Stat3.” left out

B16 tumors = assay: Melanoma B16 tumor growth; assay type: in vivo, nude mice; settings: IP, 20 mg/kg, 1/day
Protocol: (§2) Human hormone-refractory prostate cancer PC3 cells (ATCC, 1.5×10^6 cells per mouse) were injected subcutaneously into the right leg of Nude:Hsd mice (purchased from Harlan). Ten days later, when palpable tumors had developed, mice were divided into 3 groups with similar average tumor size. […] The mice treated with compound 7 group were daily injected with compound 7 dissolved in the below described vehicle, and the vehicle-treated group (veh) was daily injected by the vehicle alone. Vehicle included 4.4% DMSO, 1.2% Ethanol and 50% PEG400 in DDW; Groups were composed of 3 mice per group. Dose administered IP was 50 mg/Kg (4 ml/Kg) once a day for one month. The length (l) and the width (w) of the tumors were measured every day and the volumes of the tumors were calculated as follows: v=1w^2/2. Graphs present average volumes of the tumors versus time in days. The procedure was followed for the other described in-vivo studies with the following modifications:
The mouse B16 melanoma cells (1.5×10^6 cells per mouse) were injected subcutaneously into the right leg of male Nude:Hsd mice (purchased from Harlan). Inhibitors were injected IP daily at a dose of 20 mg/kg dissolved in 4.4% % DMSO, 1.2% EtOH, 33% PEG-400 in DDW at volume of 4 ml/kg.

PDGFR = PDGFR activation and signaling in fibroblasts overexpressing PDGFR; assay type: cell-based; settings: fibroblasts over-expressing PDGFR, PDGF stimulation
Protocol: as §1, with “Phosphorylated proteins were immunoblotted with anti-phospho-IGF1R (phosphor-IGF1R), anti-phosphotyrosine-IRS1 (phospho-IRS1), anti-phospho(T308)Akt (phospho-PKB), anti-phospho-Erk (phospho-ERK), anti-phosphotyrosine 4G10&PY20 (pY-EGFR or pY-PDGFR), anti-phospho-Ser^636/639-IRS1 (pS^636/639-IRS1) and anti-phospho-STAT3 (phospho-STAT3) antibodies. Detection was performed with horseradish peroxidase-conjugated secondary antibody using the ECL system. Blots were then stripped of antibodies, blocked with TBST with 5% low fat milk and re-probed with antibodies detecting both the phosphorylated and the non-phosphorylated corresponding proteins e.g. IGF1Rβ, IRS1, PKB, ERK, IRβ, PDGFR and Stat3.” left out

IR = molecular target: T3, IR (Homo sapiens, UniProt P06213); assay: Insulin receptor activation and signaling in fibroblasts overexpressing IR; assay type: cell-based; settings: fibroblasts over-expressing IR, insulin stimulation
T3 construct: expressed in transfected cells; host or cells: NIH3T3 fibroblasts over expressing IR
T3 sequence (P06213 28-1382): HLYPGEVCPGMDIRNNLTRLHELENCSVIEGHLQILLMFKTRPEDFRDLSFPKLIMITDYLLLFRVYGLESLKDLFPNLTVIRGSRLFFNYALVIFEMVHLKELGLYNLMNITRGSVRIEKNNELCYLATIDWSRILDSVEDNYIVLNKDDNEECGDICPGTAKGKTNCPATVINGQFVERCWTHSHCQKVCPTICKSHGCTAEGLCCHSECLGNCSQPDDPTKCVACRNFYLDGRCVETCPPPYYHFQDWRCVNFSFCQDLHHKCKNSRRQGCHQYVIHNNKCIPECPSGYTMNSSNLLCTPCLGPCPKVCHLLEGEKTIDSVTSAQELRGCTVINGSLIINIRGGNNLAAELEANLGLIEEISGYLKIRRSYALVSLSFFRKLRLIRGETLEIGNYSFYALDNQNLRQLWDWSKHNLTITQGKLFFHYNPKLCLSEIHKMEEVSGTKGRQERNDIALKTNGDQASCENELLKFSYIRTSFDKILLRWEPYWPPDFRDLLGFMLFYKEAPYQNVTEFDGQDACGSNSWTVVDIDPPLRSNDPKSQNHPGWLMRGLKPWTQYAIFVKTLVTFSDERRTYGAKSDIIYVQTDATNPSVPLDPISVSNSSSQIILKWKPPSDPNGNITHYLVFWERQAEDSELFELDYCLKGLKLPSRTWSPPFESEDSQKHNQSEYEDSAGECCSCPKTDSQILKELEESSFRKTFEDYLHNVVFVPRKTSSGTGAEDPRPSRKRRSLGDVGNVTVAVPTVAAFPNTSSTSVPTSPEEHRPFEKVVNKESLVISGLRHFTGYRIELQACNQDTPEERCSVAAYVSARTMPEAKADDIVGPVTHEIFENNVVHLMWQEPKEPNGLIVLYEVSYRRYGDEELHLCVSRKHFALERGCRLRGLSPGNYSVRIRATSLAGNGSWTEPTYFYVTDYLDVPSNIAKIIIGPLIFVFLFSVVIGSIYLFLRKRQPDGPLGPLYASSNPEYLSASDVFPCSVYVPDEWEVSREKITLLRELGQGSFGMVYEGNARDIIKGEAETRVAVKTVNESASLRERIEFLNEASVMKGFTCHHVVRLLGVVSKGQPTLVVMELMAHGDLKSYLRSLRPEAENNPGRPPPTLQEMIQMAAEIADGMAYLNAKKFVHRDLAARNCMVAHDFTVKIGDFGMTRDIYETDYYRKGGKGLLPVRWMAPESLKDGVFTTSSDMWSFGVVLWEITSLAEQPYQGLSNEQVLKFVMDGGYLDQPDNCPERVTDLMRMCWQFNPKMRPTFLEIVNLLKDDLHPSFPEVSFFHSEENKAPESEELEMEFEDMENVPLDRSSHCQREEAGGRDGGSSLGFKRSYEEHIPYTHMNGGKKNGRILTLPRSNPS
Protocol: as §1, with “Phosphorylated proteins were immunoblotted with anti-phospho-IGF1R (phosphor-IGF1R), anti-phosphotyrosine-IRS1 (phospho-IRS1), anti-phospho(T308)Akt (phospho-PKB), anti-phospho-Erk (phospho-ERK), anti-phosphotyrosine 4G10&PY20 (pY-EGFR or pY-PDGFR), anti-phospho-Ser^636/639-IRS1 (pS^636/639-IRS1) and anti-phospho-STAT3 (phospho-STAT3) antibodies. Detection was performed with horseradish peroxidase-conjugated secondary antibody using the ECL system. Blots were then stripped of antibodies, blocked with TBST with 5% low fat milk and re-probed with antibodies detecting both the phosphorylated and the non-phosphorylated corresponding proteins e.g. IGF1Rβ, IRS1, PKB, ERK, IRβ, PDGFR and Stat3.” left out

MEK = MEK activity in cells (ERK phosphorylation); assay type: cell-based
Protocol: as §1, with “Phosphorylated proteins were immunoblotted with anti-phospho-IGF1R (phosphor-IGF1R), anti-phosphotyrosine-IRS1 (phospho-IRS1), anti-phospho(T308)Akt (phospho-PKB), anti-phospho-Erk (phospho-ERK), anti-phosphotyrosine 4G10&PY20 (pY-EGFR or pY-PDGFR), anti-phospho-Ser^636/639-IRS1 (pS^636/639-IRS1) and anti-phospho-STAT3 (phospho-STAT3) antibodies. Detection was performed with horseradish peroxidase-conjugated secondary antibody using the ECL system. Blots were then stripped of antibodies, blocked with TBST with 5% low fat milk and re-probed with antibodies detecting both the phosphorylated and the non-phosphorylated corresponding proteins e.g. IGF1Rβ, IRS1, PKB, ERK, IRβ, PDGFR and Stat3.” left out

PDK = molecular target: T4, PDK (Homo sapiens, UniProt O15530); assay: PDK activity in cells (PKB Thr308 phosphorylation); assay type: cell-based
T4 construct: endogenous in cells
T4 sequence (O15530 whole entry): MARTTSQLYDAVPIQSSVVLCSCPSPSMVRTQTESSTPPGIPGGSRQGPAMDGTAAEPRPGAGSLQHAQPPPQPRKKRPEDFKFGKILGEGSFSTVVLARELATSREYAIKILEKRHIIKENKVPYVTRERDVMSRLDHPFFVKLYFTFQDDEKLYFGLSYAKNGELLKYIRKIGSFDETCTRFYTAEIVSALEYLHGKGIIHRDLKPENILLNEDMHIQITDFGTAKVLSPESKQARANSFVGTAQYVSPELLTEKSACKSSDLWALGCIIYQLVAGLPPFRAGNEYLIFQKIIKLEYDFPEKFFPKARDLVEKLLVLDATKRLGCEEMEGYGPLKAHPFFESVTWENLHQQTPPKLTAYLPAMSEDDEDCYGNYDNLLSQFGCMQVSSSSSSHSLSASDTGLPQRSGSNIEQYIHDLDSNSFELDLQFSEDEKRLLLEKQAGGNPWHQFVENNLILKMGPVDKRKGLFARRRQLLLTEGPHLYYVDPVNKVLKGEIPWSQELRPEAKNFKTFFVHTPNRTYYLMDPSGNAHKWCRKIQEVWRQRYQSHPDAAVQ
Protocol: as §1, with “Phosphorylated proteins were immunoblotted with anti-phospho-IGF1R (phosphor-IGF1R), anti-phosphotyrosine-IRS1 (phospho-IRS1), anti-phospho(T308)Akt (phospho-PKB), anti-phospho-Erk (phospho-ERK), anti-phosphotyrosine 4G10&PY20 (pY-EGFR or pY-PDGFR), anti-phospho-Ser^636/639-IRS1 (pS^636/639-IRS1) and anti-phospho-STAT3 (phospho-STAT3) antibodies. Detection was performed with horseradish peroxidase-conjugated secondary antibody using the ECL system. Blots were then stripped of antibodies, blocked with TBST with 5% low fat milk and re-probed with antibodies detecting both the phosphorylated and the non-phosphorylated corresponding proteins e.g. IGF1Rβ, IRS1, PKB, ERK, IRβ, PDGFR and Stat3.” left out

primary keratinocytes = assay: In-vitro inhibition of keratinocyte growth; assay type: cell-based; settings: growth factor enriched medium
Protocol: Primary keratinocytes were seeded in 96-well plates in growth factor enriched medium. After 48 hours medium was refreshed and compound 7 was added at the indicated concentrations (0 is 0.1% DMSO which was kept constant in all wells). Every 24 hours medium and compound 7 were refreshed, and 5 days following seeding cells were fixed with 0.5% gluteraldehide for 10 min, stained with Methylene-Blue. Access stain was washed away and the bound stain was extracted by 0.1N HCl. Absorbance at 620 nm wavelength was read in ELISA reader.

PC3 tumors = assay: Hormone-refractory prostate cancer PC3 xenograft tumor growth; assay type: in vivo, nude mice
Protocol: as §2, with “modifications: […]” for “modifications:”

Panc1 tumors = assay: Pancreatic cancer Panc1 xenograft tumor growth; assay type: in vivo, nude mice; settings: intratumoral, 1/day, 125 μg/day
Protocol: as §2
Human pancreatic cancer Pancl cells (2×10^6 cells per mouse) were injected subcutaneously into the right leg of male Nude:Hsd mice (purchased from Harlan). Compound 7 was injected intratumorally (IT) daily at doses of 125 μg/mouse in 0.06% DMSO and 2.16% PEG400 in saline.

YUMAC tumors = assay: Human melanoma YUMAC xenograft tumor growth; assay type: in vivo, nude mice; settings: IP, 20 mg/kg, 1/day
Protocol: as §2
The human YUMAC metastatic melanoma cells (2×10^6 cells per mouse), provided by Dr. Ruth Halaban (Yale University), were injected subcutaneously into the right leg of male Nude:Hsd mice (purchased from Harlan). Inhibitors were injected IP daily at a dose of 20 mg/kg dissolved in 8% EtOH, 2% Tween-80, 20% PEG-400 and 20% solutol in DDW at volume of 4 ml/kg.

T1 sequence (P08069 31-1367, species assumed): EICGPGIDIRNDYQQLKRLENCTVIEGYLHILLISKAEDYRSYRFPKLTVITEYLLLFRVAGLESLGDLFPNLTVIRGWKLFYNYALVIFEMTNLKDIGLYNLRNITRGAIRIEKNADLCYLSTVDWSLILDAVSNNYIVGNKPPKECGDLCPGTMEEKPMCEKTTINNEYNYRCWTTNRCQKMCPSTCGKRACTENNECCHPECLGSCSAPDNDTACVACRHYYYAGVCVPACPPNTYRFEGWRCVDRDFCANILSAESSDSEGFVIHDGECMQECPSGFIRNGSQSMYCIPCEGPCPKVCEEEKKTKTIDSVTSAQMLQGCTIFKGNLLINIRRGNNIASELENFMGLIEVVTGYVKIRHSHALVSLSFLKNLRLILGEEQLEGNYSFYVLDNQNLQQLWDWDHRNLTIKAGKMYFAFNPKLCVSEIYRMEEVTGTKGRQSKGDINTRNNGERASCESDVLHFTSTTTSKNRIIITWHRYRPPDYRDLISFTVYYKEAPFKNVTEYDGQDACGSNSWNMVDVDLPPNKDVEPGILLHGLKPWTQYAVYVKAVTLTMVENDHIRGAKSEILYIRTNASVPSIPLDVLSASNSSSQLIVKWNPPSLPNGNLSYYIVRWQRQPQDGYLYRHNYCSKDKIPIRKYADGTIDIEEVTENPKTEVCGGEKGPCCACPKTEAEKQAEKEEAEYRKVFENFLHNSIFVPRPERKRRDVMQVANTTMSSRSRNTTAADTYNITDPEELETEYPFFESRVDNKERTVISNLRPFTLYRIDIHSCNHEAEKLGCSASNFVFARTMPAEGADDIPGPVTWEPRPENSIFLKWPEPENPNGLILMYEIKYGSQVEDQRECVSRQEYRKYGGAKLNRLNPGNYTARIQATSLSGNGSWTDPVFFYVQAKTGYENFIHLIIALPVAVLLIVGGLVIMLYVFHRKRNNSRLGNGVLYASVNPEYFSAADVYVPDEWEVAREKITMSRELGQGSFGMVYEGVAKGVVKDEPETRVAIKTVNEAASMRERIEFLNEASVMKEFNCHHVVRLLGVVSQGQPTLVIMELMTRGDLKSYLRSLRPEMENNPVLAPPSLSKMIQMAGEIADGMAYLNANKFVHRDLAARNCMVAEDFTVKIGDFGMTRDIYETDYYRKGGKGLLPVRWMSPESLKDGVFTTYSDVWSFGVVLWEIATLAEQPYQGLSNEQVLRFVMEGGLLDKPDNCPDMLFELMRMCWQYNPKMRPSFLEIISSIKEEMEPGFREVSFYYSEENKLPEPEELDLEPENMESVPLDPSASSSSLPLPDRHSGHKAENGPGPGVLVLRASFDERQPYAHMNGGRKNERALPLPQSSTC

Row | Structure (SMILES) | Inhibition of IGF1R autophosphorylation and IGF1-induced signaling (IRS1 pTyr, Akt/PKB, MAPK/ERK) (IGF1R) | Inhibition of EGFR and EGF-induced signaling in intact cells (EGFR) | Growth inhibition of melanoma B16 tumors (B16 tumors) | IC50 (IGF1R; read-out: IC50 in inhibition of the Akt/PKB pathway downstream IGF1R) [µM] | Inhibition of PDGFR in intact cells (PDGFR) | Inhibition of IR in intact cells (IR) | Inhibition of MEK (phosphorylation of ERK) (MEK) | Inhibition of PDK (phosphorylation of PKB Thr308) (PDK) | IC50 (primary keratinocytes) [µM] | Growth inhibition of HRPC PC3 tumors (PC3 tumors; IP, 1/day, 50 mg/kg, one month, vs vehicle treated and untreated) [%] | Efficacy on HRPC model by intratumoral administration (PC3 tumors; intratumoral administration) | Growth inhibition of pancreatic cancer Panc1 tumors (Panc1 tumors) [%] | Growth inhibition of human melanoma YUMAC tumors (YUMAC tumors)
1 | N#C/C(=C\c1cc(O)c(O)c(Br)c1)C(=S)NCc1cc(O)c(O)c(Br)c1 [Compound 6] | inhibited the autophosphorylation of IGF1R | inhibited also EGFR | significant inhibitory effect |  |  |  |  |  |  |  |  |  | 
2 | N#C/C(=C\c1cc(O)c(O)c(Br)c1)C(=S)NCc1cc(O)c(O)c(O)c1 [Compound 7] | dramatically inhibited | inhibits | significant inhibitory effect | 1 to 2 | inhibits | inhibits | not inhibited | not inhibited | 2.3 | 82 | efficient | 50 | 
3 | N#C/C(=C\c1cc(O)c(O)c(I)c1)C(=S)NCc1cc(O)c(O)c(O)c1 [Compound 8] |  |  |  |  |  |  |  |  |  |  |  |  | inhibition

From US8058309B2, “Protein kinase modulators and therapeutic uses thereof” (Novotyr Therapeutics Ltd., priority 2006, dated 2011)
